This passage reports IC50 results from ChEMBL document CHEMBL1140423, “(6,7-Dimethoxy-2,4-dihydroindeno[1,2-c]pyrazol-3-yl)phenylamines: platelet-derived growth factor receptor tyrosine kinase inhibitors with broad antiproliferative activity against tumor cells” (J Med Chem, 2005).

Assay [1] has as its target Platelet-derived growth factor receptor beta (Homo sapiens, UniProt P09619). Description: Inhibitory activity against PDGFRbeta kinase.
Assay [2] relates to HUVEC. Description: Antiproliferative activity against LSGS stimulated HUVEC. The class given is functional, cell-based. The settings on record: Homo sapiens.
In assay [3] the test system is NCI-H460. Kind of assay: Antiproliferative activity against human lung tumor cell line H460. Type of assay: functional, cell-based.
In assay [4] the test system is LoVo. Kind of assay: Antiproliferative activity against human colon tumor cell line LoVo. The class given is functional, cell-based.
Assay [5] relates to LNCaP. Kind of assay: Antiproliferative activity against human prostate tumor cell line LnCAP. The class given is functional, cell-based.
In assay [6] the test system is PC-3. Description: Antiproliferative activity against human prostate tumor cell line PC3. The class given is functional, cell-based.
Assay [7] relates to T47D. Kind of assay: Antiproliferative activity against human breast tumor cell line T47D. The class given is functional, cell-based.
Assay [8] concerns A-375. Description: Antiproliferative activity against human melanoma tumor cell line A375. Type of assay: functional, cell-based.
The test system of assay [9] is ASPC1. Kind of assay: Antiproliferative activity against human pancreatic tumor cell line AsPC1. Type of assay: functional, cell-based.
Assay [10] concerns U-87 MG. Kind of assay: Antiproliferative activity against human glioma tumor cell line U87MG. Type of assay: functional, cell-based, U-87MG ATCC.
Assay [11] concerns the target Platelet-derived growth factor receptor alpha (Homo sapiens, UniProt P16234). Kind of assay: Inhibitory activity against PDGFRalpha.
Assay [12] deals with Vascular endothelial growth factor receptor (Homo sapiens, UniProt P17948+P35916+P35968). Kind of assay: Inhibitory activity against VEGFR. The class given is protein assay.
In assay [13] the target is Receptor tyrosine-protein kinase erbB-2 (Homo sapiens, UniProt P04626). Kind of assay: Inhibitory activity against HER2.
The target in assay [14] is Fibroblast growth factor receptor 1 (Homo sapiens, UniProt P11362). Description: Inhibitory activity against bFGFR1.
Assay [15] deals with Cyclin-dependent kinase 1 (Homo sapiens, UniProt P06493). Description: Inhibitory activity against CDK1.
Assay [16] concerns the target Cyclin-dependent kinase 2 (Homo sapiens, UniProt P24941). Kind of assay: Inhibitory activity against CDK2.
For assay [17], the target named is Cyclin-dependent kinase 4 (Homo sapiens, UniProt P11802). Description: Inhibitory activity against CDK4.
Assay [18] has as its target Cyclin-dependent kinase 7 (Homo sapiens, UniProt P50613). Kind of assay: Inhibitory activity against CDK7.
For assay [19], the target named is Proto-oncogene tyrosine-protein kinase Src (Homo sapiens, UniProt P12931). Kind of assay: Inhibitory activity against c-SRC.
Assay [20] addresses Tyrosine-protein kinase Fyn (Homo sapiens, UniProt P06241). Description: Inhibitory activity against FYN.
Assay [21] deals with cAMP-dependent protein kinase (PKA) (Homo sapiens, UniProt P22694+P17612+P22612). Description: Inhibitory activity against PKA. Type of assay: protein assay.
Assay [22] has as its target Glycogen synthase kinase-3 (Homo sapiens, UniProt P49840+P49841). Kind of assay: Inhibitory activity against GSK3. Type of assay: protein assay.
The target in assay [23] is Mitogen-activated protein kinase 1 (Homo sapiens, UniProt P28482). Kind of assay: Inhibitory activity against MAPK.
The target in assay [24] is Insulin receptor (Homo sapiens, UniProt P06213). Description: Inhibitory activity against IRK.
Assay [25] has as its target Focal adhesion kinase 1 (Homo sapiens, UniProt Q05397). Description: Inhibitory activity against FAK.
The target in assay [26] is Casein kinase II (Homo sapiens, UniProt P19784+P67870+P68400). Description: Inhibitory activity against Casein Kinase 2. The class given is protein-complex assay.
Assay [27] in a line: Inhibitory activity against Calmodulin Kinase.

By IC50 is commonly meant the concentration at which inhibition is half-maximal. A low value points to inhibition by little substance.

Chain of Platelet-derived growth factor receptor beta (P09619 whole entry): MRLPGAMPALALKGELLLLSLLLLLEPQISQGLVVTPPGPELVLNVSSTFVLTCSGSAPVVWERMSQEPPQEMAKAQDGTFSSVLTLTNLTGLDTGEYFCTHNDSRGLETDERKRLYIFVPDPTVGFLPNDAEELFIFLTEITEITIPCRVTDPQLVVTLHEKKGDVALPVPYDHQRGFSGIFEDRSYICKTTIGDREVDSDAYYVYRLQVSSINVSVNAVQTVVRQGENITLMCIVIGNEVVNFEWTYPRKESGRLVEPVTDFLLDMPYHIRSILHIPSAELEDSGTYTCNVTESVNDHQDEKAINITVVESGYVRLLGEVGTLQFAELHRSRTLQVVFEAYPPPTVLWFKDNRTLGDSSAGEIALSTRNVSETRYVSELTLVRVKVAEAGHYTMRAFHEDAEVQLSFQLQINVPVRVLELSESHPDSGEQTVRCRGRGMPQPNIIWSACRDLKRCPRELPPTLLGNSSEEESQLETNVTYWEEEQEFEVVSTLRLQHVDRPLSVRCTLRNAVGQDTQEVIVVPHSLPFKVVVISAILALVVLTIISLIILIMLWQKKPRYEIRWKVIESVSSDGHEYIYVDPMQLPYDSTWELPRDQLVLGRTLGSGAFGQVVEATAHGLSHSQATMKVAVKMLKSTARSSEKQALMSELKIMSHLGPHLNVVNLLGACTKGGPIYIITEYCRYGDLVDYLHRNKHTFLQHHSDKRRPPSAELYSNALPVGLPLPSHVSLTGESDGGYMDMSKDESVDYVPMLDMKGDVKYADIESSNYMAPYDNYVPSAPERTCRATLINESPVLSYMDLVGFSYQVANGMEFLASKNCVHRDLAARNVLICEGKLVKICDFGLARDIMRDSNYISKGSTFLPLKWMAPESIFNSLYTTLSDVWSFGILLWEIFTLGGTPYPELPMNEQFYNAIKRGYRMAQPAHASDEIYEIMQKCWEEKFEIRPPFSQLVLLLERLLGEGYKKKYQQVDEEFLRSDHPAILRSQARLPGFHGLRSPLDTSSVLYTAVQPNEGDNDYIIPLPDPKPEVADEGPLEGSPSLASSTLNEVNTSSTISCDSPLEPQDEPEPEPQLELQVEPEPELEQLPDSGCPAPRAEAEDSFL
Chain of Cyclin-dependent kinase 1 (P06493 whole entry): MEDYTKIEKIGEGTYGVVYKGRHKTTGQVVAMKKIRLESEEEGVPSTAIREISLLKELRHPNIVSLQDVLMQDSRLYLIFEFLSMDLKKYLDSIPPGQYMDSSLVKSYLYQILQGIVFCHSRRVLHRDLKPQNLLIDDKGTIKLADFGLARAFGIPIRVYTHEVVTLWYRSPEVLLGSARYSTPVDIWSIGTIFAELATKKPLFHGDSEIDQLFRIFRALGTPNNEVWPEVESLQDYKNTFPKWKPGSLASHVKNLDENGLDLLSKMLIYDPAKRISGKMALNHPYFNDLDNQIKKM
Chain of Platelet-derived growth factor receptor alpha (P16234 whole entry): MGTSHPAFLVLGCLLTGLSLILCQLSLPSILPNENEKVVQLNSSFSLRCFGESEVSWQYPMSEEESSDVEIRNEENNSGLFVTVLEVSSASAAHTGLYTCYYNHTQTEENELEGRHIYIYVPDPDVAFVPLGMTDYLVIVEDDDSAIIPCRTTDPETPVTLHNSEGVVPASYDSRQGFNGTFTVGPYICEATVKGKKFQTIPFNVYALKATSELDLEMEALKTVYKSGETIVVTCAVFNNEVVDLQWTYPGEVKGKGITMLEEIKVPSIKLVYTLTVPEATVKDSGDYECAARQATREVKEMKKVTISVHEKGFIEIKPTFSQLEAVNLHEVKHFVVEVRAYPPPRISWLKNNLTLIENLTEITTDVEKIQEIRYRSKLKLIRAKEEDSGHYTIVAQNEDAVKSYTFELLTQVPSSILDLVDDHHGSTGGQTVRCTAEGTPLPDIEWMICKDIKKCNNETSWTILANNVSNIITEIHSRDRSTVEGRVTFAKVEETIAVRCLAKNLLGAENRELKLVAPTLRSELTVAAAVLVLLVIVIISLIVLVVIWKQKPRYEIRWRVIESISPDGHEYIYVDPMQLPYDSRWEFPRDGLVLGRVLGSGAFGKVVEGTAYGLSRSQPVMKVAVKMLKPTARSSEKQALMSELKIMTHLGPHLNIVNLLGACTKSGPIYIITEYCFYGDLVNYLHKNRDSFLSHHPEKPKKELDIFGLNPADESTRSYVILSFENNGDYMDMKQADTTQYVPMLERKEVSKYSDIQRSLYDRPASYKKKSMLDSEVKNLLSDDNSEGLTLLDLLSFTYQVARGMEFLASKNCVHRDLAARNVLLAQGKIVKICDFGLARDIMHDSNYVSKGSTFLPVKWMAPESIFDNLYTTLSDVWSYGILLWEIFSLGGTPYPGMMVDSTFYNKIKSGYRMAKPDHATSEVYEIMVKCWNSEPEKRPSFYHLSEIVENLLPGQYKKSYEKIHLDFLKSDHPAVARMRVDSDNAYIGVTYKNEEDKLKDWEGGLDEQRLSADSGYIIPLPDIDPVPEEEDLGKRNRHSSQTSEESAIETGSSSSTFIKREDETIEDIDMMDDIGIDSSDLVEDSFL
Chain of Receptor tyrosine-protein kinase erbB-2 (P04626 whole entry): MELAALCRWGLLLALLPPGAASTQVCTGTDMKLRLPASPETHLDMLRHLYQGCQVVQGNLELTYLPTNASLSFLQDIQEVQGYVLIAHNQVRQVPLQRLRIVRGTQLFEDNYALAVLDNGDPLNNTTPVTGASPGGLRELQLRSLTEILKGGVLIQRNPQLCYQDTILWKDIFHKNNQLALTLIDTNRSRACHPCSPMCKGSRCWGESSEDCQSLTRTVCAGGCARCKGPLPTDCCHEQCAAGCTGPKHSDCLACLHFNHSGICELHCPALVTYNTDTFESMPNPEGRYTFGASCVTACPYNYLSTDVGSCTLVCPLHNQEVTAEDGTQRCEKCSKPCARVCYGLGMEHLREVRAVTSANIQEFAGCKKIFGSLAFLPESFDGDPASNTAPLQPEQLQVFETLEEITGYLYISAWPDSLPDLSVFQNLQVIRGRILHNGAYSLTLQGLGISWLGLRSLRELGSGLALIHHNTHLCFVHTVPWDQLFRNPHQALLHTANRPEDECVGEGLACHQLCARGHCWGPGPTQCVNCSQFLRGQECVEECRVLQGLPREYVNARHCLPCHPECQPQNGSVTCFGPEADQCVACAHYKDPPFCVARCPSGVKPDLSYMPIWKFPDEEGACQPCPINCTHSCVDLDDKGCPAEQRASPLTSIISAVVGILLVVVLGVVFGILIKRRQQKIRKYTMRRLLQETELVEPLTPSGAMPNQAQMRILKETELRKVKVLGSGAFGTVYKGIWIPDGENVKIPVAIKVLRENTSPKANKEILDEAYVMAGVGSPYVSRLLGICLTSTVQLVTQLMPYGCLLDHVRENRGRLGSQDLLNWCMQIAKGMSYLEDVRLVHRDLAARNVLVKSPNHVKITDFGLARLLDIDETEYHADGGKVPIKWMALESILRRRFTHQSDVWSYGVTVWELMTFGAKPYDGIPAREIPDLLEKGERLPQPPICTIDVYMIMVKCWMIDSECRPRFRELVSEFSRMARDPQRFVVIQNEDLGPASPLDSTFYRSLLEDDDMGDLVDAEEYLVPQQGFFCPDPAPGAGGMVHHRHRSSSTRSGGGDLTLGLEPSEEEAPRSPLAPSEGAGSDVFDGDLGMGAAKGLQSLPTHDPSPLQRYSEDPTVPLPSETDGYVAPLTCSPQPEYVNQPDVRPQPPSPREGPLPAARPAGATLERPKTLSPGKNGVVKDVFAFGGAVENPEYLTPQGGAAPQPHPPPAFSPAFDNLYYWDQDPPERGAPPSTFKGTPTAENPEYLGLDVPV
Chain of Tyrosine-protein kinase Fyn (P06241 whole entry): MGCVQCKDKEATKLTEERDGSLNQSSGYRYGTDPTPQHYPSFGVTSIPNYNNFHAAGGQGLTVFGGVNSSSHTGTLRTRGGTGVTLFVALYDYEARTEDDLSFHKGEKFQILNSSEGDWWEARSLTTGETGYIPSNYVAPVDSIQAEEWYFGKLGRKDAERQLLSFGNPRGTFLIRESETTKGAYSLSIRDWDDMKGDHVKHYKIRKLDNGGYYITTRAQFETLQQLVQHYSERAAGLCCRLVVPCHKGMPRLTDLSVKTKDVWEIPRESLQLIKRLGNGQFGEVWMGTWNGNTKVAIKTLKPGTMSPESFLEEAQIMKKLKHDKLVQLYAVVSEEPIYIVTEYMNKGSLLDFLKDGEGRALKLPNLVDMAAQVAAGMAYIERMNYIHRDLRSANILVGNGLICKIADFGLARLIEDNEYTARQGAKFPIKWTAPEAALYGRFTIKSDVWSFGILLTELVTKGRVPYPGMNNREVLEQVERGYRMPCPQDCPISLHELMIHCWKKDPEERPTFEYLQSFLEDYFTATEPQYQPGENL
Chain of Proto-oncogene tyrosine-protein kinase Src (P12931 2-536 limits assumed): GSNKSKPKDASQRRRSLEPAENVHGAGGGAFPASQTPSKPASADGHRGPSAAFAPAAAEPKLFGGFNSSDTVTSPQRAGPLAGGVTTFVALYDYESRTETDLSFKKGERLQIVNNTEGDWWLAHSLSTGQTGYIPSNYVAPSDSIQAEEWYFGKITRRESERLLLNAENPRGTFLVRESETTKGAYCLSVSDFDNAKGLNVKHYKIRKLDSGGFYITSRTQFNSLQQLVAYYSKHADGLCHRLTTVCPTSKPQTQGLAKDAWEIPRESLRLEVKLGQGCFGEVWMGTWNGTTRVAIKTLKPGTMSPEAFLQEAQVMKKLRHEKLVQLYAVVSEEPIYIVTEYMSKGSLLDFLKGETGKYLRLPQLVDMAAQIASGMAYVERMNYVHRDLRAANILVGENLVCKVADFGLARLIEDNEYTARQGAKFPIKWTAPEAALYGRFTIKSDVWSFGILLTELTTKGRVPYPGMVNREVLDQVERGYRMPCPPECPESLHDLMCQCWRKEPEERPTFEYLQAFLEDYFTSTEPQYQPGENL

Compound `COc1cc2c(cc1OC)-c1n[nH]c(Nc3ccc(Cl)c(Cl)c3)c1C2` had an IC50 in assay [1] of 410 nM.
Consider `COc1cc2c(cc1OC)-c1n[nH]c(Nc3cccc(F)c3)c1C2`, for which the IC50 in assay [1] amounted to 4.2 nM; in assay [2] it was 4870 nM; in assay [3], 10 nM; in [4] it was 17 nM; in assay [5], 9 nM; in assay [6], 27 nM. The IC50 in [7] is 32 nM; in assay [8] it was 7 nM; in assay [9] it was 592 nM; in assay [10], 13000 nM; in assay [11] it was 45 nM; in [12] it was 3100 nM. Further, the IC50 in assay [13] is greater than 10000 nM; in assay [14], 45800 nM; in assay [15], greater than 100000 nM; in assay [16], greater than 10000 nM; in [17], greater than 100000 nM; in [18], 56700 nM. The IC50 in assay [19] was 185 nM; in [20] it was 378 nM; in assay [21], greater than 100000 nM; in assay [22], 13000 nM; in assay [23], greater than 100000 nM; in assay [24], greater than 100000 nM. Moreover, the half-inhibitory concentration (IC50) in assay [25] was greater than 100000 nM; in assay [26], greater than 100000 nM; in assay [27], greater than 10000 nM.
Turning to `COc1cccc(Nc2[nH]nc3c2Cc2cc(OC)c(OC)cc2-3)c1`, the IC50 in [2] stood at 11 nM; in assay [3], 4 nM; in [4], 4 nM; in assay [5], 5 nM; in [7] it was 33 nM; in [8], 4 nM. Further, the figures for the IC50 in [9] and in assay [10] were 355 nM and greater than 100000 nM, respectively.
Regarding `COc1cc2c(cc1OC)-c1n[nH]c(Nc3cccc(Br)c3)c1C2`, the IC50 in assay [1] was determined as 5 nM; in assay [2] it was 1480 nM; in assay [3], 6 nM; in assay [4], 6 nM; in assay [5], 2 nM; in assay [6] it was 18 nM. For the same compound, the IC50 in assay [7] is 37 nM; in assay [8], 6 nM; in [9], 331 nM; in assay [10], greater than 100000 nM.
`COc1cc2c(cc1OC)-c1[nH]nc(-c3ccccc3)c1C2`: the IC50 in assay [1] stood at 17 nM; in assay [2], 1390 nM; in [3] it was 8400 nM; in assay [4] it was 2700 nM; in assay [5], 1200 nM; in assay [6], 31200 nM. Besides, the IC50 in [7] was 4410 nM; in [8], 8850 nM; in assay [9], 6820 nM; in [10] it was greater than 50000 nM.
As to `COc1cc2c(cc1OC)-c1n[nH]c(Nc3cccc(C(F)(F)F)c3)c1C2`, the IC50 was 38 nM in assay [1]; 2500 nM in assay [2]; 31 nM in assay [3]; 28 nM in assay [4]; 255 nM in assay [5]; 21 nM in assay [6]. Also, the IC50 in assay [7] is 440 nM; in [8], 35 nM; in [9], 290 nM; in assay [10], greater than 100000 nM.
Take `COc1cc2c(cc1OC)-c1n[nH]c(Nc3cccc(C(=O)O)c3)c1C2`: in assay [1], the IC50 is greater than 800 nM.
The same measure, in the same setting: in the case of `COc1cc2c(cc1OC)-c1n[nH]c(Nc3ccc(Cl)cc3Cl)c1C2` it was 5420 nM.
In assay [10], `COc1cc2c(cc1OC)-c1n[nH]c(Nc3cccc(Cl)c3)c1C2` gave an IC50 of 24000 nM.
In assay [1], `COc1cc2c(cc1OC)-c1n[nH]c(Nc3cc(Cl)cc(Cl)c3)c1C2` gave an IC50 of 310 nM.
For `COc1cc2c(cc1OC)-c1n[nH]c(Nc3cccc(C)c3)c1C2`, the IC50 came to 8 nM in [2]; 29 nM in [3]; 19 nM in assay [4]; 1 nM in assay [5]; 42 nM in [7]; 15 nM in [8]. Moreover, the results for the IC50 in assay [9] and in [10] were 4450 nM and greater than 100000 nM, respectively.
`COC(=O)c1cccc(Nc2[nH]nc3c2Cc2cc(OC)c(OC)cc2-3)c1` registered an IC50 in assay [1] of 33 nM.
On to `COc1cccc2c1Cc1c-2n[nH]c1Nc1ccccc1`, for which the IC50 in assay [2] is 283 nM; in assay [3] it was 2800 nM; in [4] it was 798 nM; in assay [5], 1700 nM; in assay [6] it was 7340 nM; in [7] it was 4700 nM. The IC50 was 1190 nM in assay [8], greater than 10000 nM in assay [9] and greater than 100000 nM in [10].
Turning to `COc1ccc2c(c1)-c1n[nH]c(Nc3ccccc3)c1C2`, the IC50 in assay [5] was 14400 nM; in assay [6] it was greater than 10000 nM; in assay [7], greater than 10000 nM; in assay [8], greater than 50000 nM; in assay [9], greater than 10000 nM; in assay [10], greater than 100000 nM.
The compound `COc1cc2c(cc1OC)-c1n[nH]c(Nc3cc(Cl)ccc3Cl)c1C2` showed an IC50 in [1] of 6220 nM.
For the compound `COc1cc2c(cc1OC)-c1n[nH]c(Nc3ccccc3)c1C2`, the IC50 in assay [1] worked out at 9 nM; in [2], 31 nM; in [3], 353 nM; in assay [4] it was 124 nM; in [5], 600 nM; in assay [6], 108 nM. Further, the IC50 in assay [7] worked out at 420 nM; in assay [8], 62 nM; in assay [9] it was 2160 nM; in assay [10], 21000 nM.
